Reference: patent US8362248B2, “Substituted pyridinyl and pyrimidinyl derivatives as modulators of metabolism and the treatment of disorders related thereto” (Arena Pharmaceuticals, Inc., priority 2005, dated 2013)
Converted amounts (≈) assume the structure as drawn. Like-named read-outs stand apart in the source and are kept apart here.

Key:
RUP3 = target: T1, RUP3 (Homo sapiens, UniProt Q8TDV5); experiment: RUP3 dose responses in melanophores (melanophore dispersion assay); assay type: cell-based
T1 construct: ID; No:2; expressed in transfected cells; host or cells: melanophores (cultured as per Potenza and Lerner 1992), electroporated
T1 sequence (Q8TDV5 with tags, fused parts or gaps): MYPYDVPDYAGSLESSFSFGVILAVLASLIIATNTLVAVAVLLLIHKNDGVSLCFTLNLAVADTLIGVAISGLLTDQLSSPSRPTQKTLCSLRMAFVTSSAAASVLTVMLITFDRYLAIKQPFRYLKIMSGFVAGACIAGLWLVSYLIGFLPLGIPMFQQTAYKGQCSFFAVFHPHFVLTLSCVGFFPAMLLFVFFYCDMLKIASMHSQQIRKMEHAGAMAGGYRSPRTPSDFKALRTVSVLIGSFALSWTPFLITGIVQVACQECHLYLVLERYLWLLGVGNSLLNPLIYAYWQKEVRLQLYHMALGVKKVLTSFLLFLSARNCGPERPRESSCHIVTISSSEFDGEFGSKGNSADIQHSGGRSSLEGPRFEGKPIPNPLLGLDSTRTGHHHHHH
Experimental: Melanophores are maintained in culture as reported by Potenza, M. N. and Lerner, M. R., in Pigment Cell Research, Vol. 5, 372-378, 1992 and transfected with the RUP3 expression vector (pCMV) using electroporation. Following electroporation, the transfected cells are plated into 96 well plates for the assay. The cells are then allowed to grow for 48 hours in order to both recover from the electroporation procedure and attain maximal receptor expression levels.
On the assay day, the growth medium on the cells is replaced with serum-free buffer containing 10 nM melatonin. The melatonin acts via an endogenous Gi-coupled GPCR in the melanophores to lower intracellular cAMP levels. In response to lowered cAMP levels, the melanophores translocate their pigment to the center of the cell. The net effect of this is a significant decrease in the absorbance reading of the cell monolayer in the well, measured at […].
After a 1-hour incubation in melatonin, the cells become completely pigment-aggregated. At this point a baseline absorbance reading is collected. Serial dilutions of test compounds are then added to the plate and compounds that stimulate RUP3 produce increases in intracellular cAMP levels. In response to these increased cAMP levels, the melanophores translocate their pigment back into the cell periphery. After one hour, stimulated cells are fully pigment-dispersed. The cell monolayer in the dispersed state absorbs much more light in the 600-650 nm range. The measured increase in absorbance compared to the baseline reading allows one to quantitate the degree of receptor stimulation and plot a dose-response curve.
The compounds in the above examples were screened using the melanophore dispersion assay, as described above.

Male C57b1/6J mice = experiment: Oral glucose tolerance test (oGTT) in mice; assay type: in vivo; conditions: for lowering of blood glucose in oGTT (in words): mice after challenge with glucose; for Mean % Inhibition of Glucose Excursion: oGTT, mice, p.o.
Experimental: A. Oral Glucose tolerance test (oGTT)
[…] Compounds were delivered orally via a gavage needle (p.o., volume 10 mL/Kg). At time 0, levels of blood glucose were assessed using a glucometer (Elite XL, Bayer), and mice were administered either vehicle (20% hydroxypropyl-beta-cyclodextrin) or test compound. Thirty minutes after administration of test compound, levels of blood glucose were again assessed, and mice were administered dextrose orally at a dose of 3 g/Kg. Blood glucose measurements were then taken 20 min, 40 min, 60 min and 120 min after this time.

Aqueous solubility = assay type: physicochemical; conditions: aqueous medium, aqueous buffer
[1] = Rat dose-range PK study (dose escalation pharmacokinetics); assay type: in vivo
Experimental: Animal, Compound Formulation, Dosing, and Blood Sample Collection: […]
Male SD rats (250-300 g) were purchased from Charles River Laboratory; upon reciept, animals were placed under light-dark cycle (6:30 am-6:30 pm lights on). They were allowed ad libitum access to water and 4 pieces of food daily (Purina Meals Rodent Diet, Product Number 5001).
Compound formulations were prepared as following: The IV injection formulation was prepared in 20% hydroxypropyl-beta-cyclodextrin with concentration of […]. The PO formulations were prepared in 0.5% hydroxypropyl methylcellulose with concentrations of […]. […]
Plasma samples were prepared as follows. […] Calibration standards were typically prepared in the range of 2.0 ng/mL to 10 μg/mL with linear regression for quantitation. […]
Results were calculated by noncompartmental analysis using WinNonlin Pro version 3.1 based on plasma concentration—time profiles for individual animals. Plasma levels were determined as described above and the oral and intravenous area under the concentration vs. time curve (AUC was calculated using the linear trapezoidal rule up to the last measurable concentration and was then extrapolated to infinity) were compared to determine the % bioavailability (% F) by the following formula: Dose (IV)*AUC (oral)/Dose (oral)*AUC (IV). […]

[2] = melanophore dispersion assay, read-out: RUP3 (EC50)

SMILES: COc1cc(S(C)(=O)=O)ccc1Nc1ncnc(OC2CCN(C(=O)OC(C)C)CC2)c1OC [Compound 10, 4-[6-(4-Methanesulfonyl-2-methoxy-phenylamino)-5-methoxy-pyrimidin-4-yloxy]-piperidine-1-carboxylic acid isopropyl ester]
- EC50 (RUP3; [2]): 26 nM

SMILES: COc1c(Nc2ccc(S(C)(=O)=O)cc2F)ncnc1OC1CCN(C(=O)OC(C)C)CC1 [Compound 24, 4-[6-(2-Fluoro-4-methanesulfonyl-phenylamino)-5-methoxy-pyrimidin-4-yloxy]-piperidine-1-carboxylic acid isopropyl ester]
- EC50 (RUP3; [2]): 0.49 nM

SMILES: CCOc1cc(F)c(Nc2ncnc(OC3CCN(C(=O)OC(C)C)CC3)c2OC)cc1F [Compound 75, 4-[6-(4-Ethoxy-2,5-difluoro-phenylamino)-5-methoxy-pyrimidin-4-yloxy]-piperidine-1-carboxylic acid isopropyl ester]
- lowering of blood glucose in oGTT (in words) (Male C57b1/6J mice): lowered blood glucose in a dose-dependent manner
- Mean % Inhibition of Glucose Excursion (Male C57b1/6J mice; dose 3 mg/Kg): 22%
- Mean % Inhibition of Glucose Excursion (Male C57b1/6J mice; dose 10 mg/Kg): 34%

SMILES: COc1c(Oc2ccc(S(C)(=O)=O)cc2F)ncnc1OC1CCN(C(=O)OC(C)C)CC1 [Compound 76, 4-[6-(2-Fluoro-4-methanesulfonyl-phenoxy)-5-methoxy-pyrimidin-4-yloxy]-piperidine-1-carboxylic acid isopropyl ester]
- EC50 (RUP3; [2]): 2.51 nM

SMILES: COc1c(OC2CCN(C(=O)OC(C)C)CC2)ccnc1Nc1ccc(S(C)(=O)=O)cc1F [Compound 77, 4-[2-(2-Fluoro-4-methanesulfonyl-phenylamino)-3-methoxy-pyridin-4-yloxy]-piperidine-1-carboxylic acid isopropyl ester]
- solubility (Aqueous solubility; pH=2): 1120 µg/mL (≈ 2330 µM)
- solubility (Aqueous solubility; pH=5): 190 µg/mL (≈ 395 µM)

SMILES: COc1c(Nc2ccc(NCCO)nc2C)ncnc1OC1CCN(C(=O)OC(C)C)CC1 [Compound 78, 4-{6-[6-(2-Hydroxy-ethylamino)-2-methyl-pyridin-3-ylamino]-5-methoxy-pyrimidin-4-yloxy}-piperidine-1-carboxylic acid isopropyl ester]
- solubility (Aqueous solubility; pH=2): 1450 µg/mL (≈ 3150 µM)
- solubility (Aqueous solubility; pH=5): 380 µg/mL (≈ 825 µM)

SMILES: COc1c(Nc2ccc(S(C)(=O)=O)nc2C)ncnc1OC1CCN(C(=O)OC(C)C)CC1 [Compound 84, 4-[6-(6-Methanesulfonyl-2-methyl-pyridin-3-ylamino)-5-methoxy-pyrimidin-4-yloxy]-piperidine-1-carboxylic acid isopropyl ester]
- reduction in AUC (blood glucose, oGTT) (Male C57b1/6J mice; Experiment 1, 30 mpk): 38%
- reduction in AUC (blood glucose, oGTT) (Male C57b1/6J mice; Experiment 2, 30 mpk): 84%
- lowering of blood glucose in oGTT (in words) (Male C57b1/6J mice): able to lower blood glucose
- dose escalation pharmacokinetics, AUC vs dose (in words) ([1]; FIG. 5): linear dose escalation pharmacokinetics
- dose escalation pharmacokinetics, AUC vs dose (in words) ([1]; FIG. 5, listed as 4-[6-(6-Methanesulfonyl-2-methyl-pyridin-3-ylamino)-5-methoxy-pyrimidin-4-yloxy]): essentially linear dose escalation pharmacokinetics
- EC50 (RUP3): 3.55 nM
- agonist activity at the RUP3 receptor (in words) (RUP3): potent agonist
